# Data published in paper PMC12719775, “Alexidine is a TAZ-specific small-molecule inhibitor that suppresses breast cancer invasion and metastasis” (iScience, 2025).
# Assays:
# Type in all cases: biochemical
# [1] = target: T1, TAZ-TEAD biosensor (FLAG-SmBiT-TAZ / His-LgBiT-TEAD1) (Homo sapiens, UniProt Q9GZV5); test: TR-FRET dose response (anti-FLAG-Tb / anti-His-D2), disruption of TAZ-TEAD1 interaction; details: HEK293T lysate, 18 h; protein-protein interaction inhibition
# T1 construct: gene WWTR1; FLAG-SmBiT-TAZ aa 13-119 and His-LgBiT-TEAD1 aa 194-411 co-expressed in HEK293T; cell lysate; tags kept; with Transcriptional enhancer factor TEF-1
# T1 sequence (Q9GZV5 13-119): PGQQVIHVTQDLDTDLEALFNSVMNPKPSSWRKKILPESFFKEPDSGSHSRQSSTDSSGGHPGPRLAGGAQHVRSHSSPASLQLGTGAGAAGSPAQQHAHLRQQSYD
# T1 sequence (P28347 209-426 partner): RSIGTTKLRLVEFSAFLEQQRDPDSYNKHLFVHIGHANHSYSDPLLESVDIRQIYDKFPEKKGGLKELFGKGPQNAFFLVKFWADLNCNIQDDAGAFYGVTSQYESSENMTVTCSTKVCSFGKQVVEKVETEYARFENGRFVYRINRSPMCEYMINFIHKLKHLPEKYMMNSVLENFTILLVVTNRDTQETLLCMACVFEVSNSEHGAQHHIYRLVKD
# TAZ = target: T2, TAZ (Homo sapiens, UniProt Q9GZV5); test: cellular thermal shift assay (CETSA) with western blot; details: 100 μM alexidine, 4 h at 4 °C, HEK293T lysate, heated 25-60 °C; destabilising shift
# T2 construct: gene WWTR1; endogenous full-length TAZ in HEK293T freeze-thaw lysate (Methods: endogenous)
# T2 sequence (Q9GZV5 whole entry): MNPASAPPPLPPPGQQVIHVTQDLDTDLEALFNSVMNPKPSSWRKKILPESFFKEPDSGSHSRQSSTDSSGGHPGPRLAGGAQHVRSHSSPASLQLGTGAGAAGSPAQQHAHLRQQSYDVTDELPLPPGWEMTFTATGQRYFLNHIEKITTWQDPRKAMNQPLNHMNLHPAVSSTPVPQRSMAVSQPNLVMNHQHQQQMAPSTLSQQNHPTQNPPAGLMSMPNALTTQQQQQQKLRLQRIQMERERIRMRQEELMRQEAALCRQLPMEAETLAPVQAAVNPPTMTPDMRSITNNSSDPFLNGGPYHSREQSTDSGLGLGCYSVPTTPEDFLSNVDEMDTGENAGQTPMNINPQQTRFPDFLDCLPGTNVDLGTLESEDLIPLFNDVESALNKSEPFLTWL
# [2] = target: T3, GST-TAZ / Venus-Flag-TEAD1 (VF-TEAD1) (Homo sapiens, UniProt Q9GZV5); test: GST pull-down with western blot densitometry; details: HEK293T lysate, 18 h at 4 °C; protein-protein interaction inhibition
# T3 construct: gene WWTR1; with Transcriptional enhancer factor TEF-1
# T3 sequence (Q9GZV5 whole entry): as above
# T3 sequence (P28347 whole entry partner): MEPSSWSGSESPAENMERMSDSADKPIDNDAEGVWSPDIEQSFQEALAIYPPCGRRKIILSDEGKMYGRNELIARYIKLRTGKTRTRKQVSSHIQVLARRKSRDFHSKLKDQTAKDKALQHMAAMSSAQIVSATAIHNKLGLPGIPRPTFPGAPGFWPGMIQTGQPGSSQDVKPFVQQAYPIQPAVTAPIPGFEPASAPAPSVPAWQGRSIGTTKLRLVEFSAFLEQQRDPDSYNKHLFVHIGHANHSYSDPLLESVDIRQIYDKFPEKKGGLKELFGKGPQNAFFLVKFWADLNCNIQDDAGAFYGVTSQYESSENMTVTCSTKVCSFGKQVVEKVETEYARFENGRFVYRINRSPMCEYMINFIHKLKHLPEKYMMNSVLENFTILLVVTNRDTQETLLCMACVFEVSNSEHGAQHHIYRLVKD
smiles,measurement,setting,value
CCCCC(CC)CNC(=N)NC(=N)NCCCCCCNC(=N)NC(=N)NCC(CC)CCCC (stereo not drawn) [alexidine],TR-FRET signal,[1],alexidine disrupted TAZ- TEAD PPI in a dose-dependent manner
same,Tm,TAZ,A reduction in TAZ rather than TEAD stability and melting temperature (Tm) was observed
same,% PPI signal,[2],inhibition of GST-TAZ and VF-TEAD1 interaction was achieved by alexidine treatment
